The text below walks through data of PMC4783701 (Scientific Reports, 2016).

Values after ≈ are worked out from the molar mass of the structure shown. Values joined by “and” are separate entries in the source; they are usually repeats but may differ in a detail not shown here. Identical values can stand only once. Some results are limits rather than exact numbers.

Series [1] concerns influenza H1N1 virus. As to the kind of experiment: microbe, parasite or virus in culture. Conditions: for IC50: Influenza A virus, H1N1, MDCK. Format: cell-based, influenza A virus.
The nature of a further series: MTT cytotoxicity assay. In kind it is cell-based, canine. Conditions: dog, MDCK cells. Here is the method:
Selectivity index (SI) of each compound was defined as the ratio of CC50 over IC50. CC50 value was determined with MTT assay according to the manufacturer’s protocol (Invitrogen), while IC50 data was obtained by plaque reduction assay. Both assays were done in MDCK cells and values were calculated using Sigma plot 12.0 (SPSS).
A general note: Tetrazolium dyes change colour on reduction, which living cells bring about.

Series [2] relates to influenza H1N1 virus. Format: cell-based, influenza A virus.
In series [3] the target is PAN endonuclease (N-terminal domain of the PA subunit) (Influenza A virus, UniProt P03433). In kind it is biochemical.
Series [4] has as its system influenza H1N1 virus. Format: cell-based, influenza A virus. The source holds these as a separate data set.
In a further series the test system is H1N1 virus. The experiment in a line: microbe, parasite or virus in culture. In kind it is cell-based. The conditions noted are these: Influenza A virus, H1N1, MDCK, 24 h.
The test system of the next series is H3N2 virus. In kind it is cell-based, influenza A virus. The conditions noted are these: MDCK, MOI 0.002, 24 h post-infection.
The next series deals with H5N1 virus. As to the kind of experiment: microbe, parasite or virus in culture. Conditions: Influenza A virus, H5N1, MDCK, 24 h. Format: cell-based.
For the next series, the system named is H7N7 virus. As to the kind of experiment: microbe, parasite or virus in culture. The conditions noted are these: Influenza A virus, H7N7, MDCK, 24 h. Format: cell-based.
The test system of the next series is H7N9 virus. In kind it is cell-based, influenza A virus. The conditions noted are these: MDCK, MOI 0.002, 24 h post-infection.
A further series has as its system H9N2 virus. As to the kind of experiment: microbe, parasite or virus in culture. Format: cell-based. The conditions noted are these: Influenza A virus, H9N2, MDCK, 24 h.
Series [5] deals with multiple subtypes of influenza virus, including H1N1, H3N2, H5N1, H7N7, H7N9, and H9N2. In kind it is cell-based, influenza A virus. Conditions: all tested subtypes; for inhibition of viral replication: serial-diluted compound.
In series [6] the target is influenza polymerase activity (PB1, PB2, PA, NP) (Influenza A virus, UniProt P03433). Format: cell-based.
Another series concerns the target PAN protein (Influenza A virus, UniProt P03433). The experiment in a line: biochemical. In kind it is binding.
The next series can be described thus: Solubility in PBS. In kind it is physicochemical. Conditions: read-out: solubility limitation.

Regarding `Oc1c(Br)cc(/C=N/Nc2nc3ccccc3s2)c(O)c1Br` [PA-35], in the series with influenza H1N1 virus [1], the “Selectivity Index (CC50/IC50)” value is 58, the plaque number reduction entry is given as “reduce the plaque number in a dose-dependent manner” and the half-inhibitory concentration (IC50) amounted to 1300 ± 500 nM. The same compound showed a half-maximal cytotoxic concentration (CC50) in “MTT cytotoxicity assay” of 75000 ± 23000 nM.
`CC(=O)N[C@H]1[C@H]([C@H](O)[C@H](O)CO)OC(C(=O)O)=C[C@@H]1N=C(N)N` [zanamivir, reference compound]: in the series on influenza H1N1 virus [2], the “intracellular and supernatant vRNA when added at 1 h p.i. and maintained” value is given as “reduced the vRNA in the supernatant but not inside the cells”.
`O=C([O-])Cc1c[nH]c2ccc(O)cc12.[K+]` [Compound 5106705]: the “PAN Endonuclease Inhibition Postive” value in [3] is reported as “Y”.
For the compound `O=C1N=c2ccccc2=C1NNC1=NC(=O)/C(=C2/C(=O)Nc3ccccc32)S1` [ANA-0, (5Z)-2-[2-(2-oxoindol-3-yl)hydrazinyl]-5-(2-oxo-1H-indol-3-ylidene)-1,3-thiazol-4-one], the “IC50 compared with that of DPBA” value in [3] was “lower IC50s”. In addition, the “Selectivity Index (CC50/IC50)” value with influenza H1N1 virus [1] is given as above 500. Further, the IC50 is 800 ± 100 nM in the series with influenza H1N1 virus [1]; below 1000 nM with H1N1 virus; around 2500 nM with H5N1 virus; around 2500 nM with H7N7 virus; below 1000 nM in the series with H9N2 virus. For the same compound, the CC50 in the series “MTT cytotoxicity assay” is above 400000 nM. For the same compound, in the series with influenza H1N1 virus [4], the “reduction in supernatant viral titer” value was 2–3 log. Further, the “concentration required for similar inhibition relative to H1N1 and H9N2” value in the series on H3N2 virus was 5 fold and > 5 fold; in the series with H7N9 virus, 5 fold and > 5 fold. Also, in series [5] (20 μM), the “suppression of virus replication” value is “more than 3 logs”. The “inhibition of viral replication” value in series [5] is on record as “inhibited viral replication of all tested subtypes of influenza virus in a dose-dependent manner”. Also, the “antiviral efficacy when added during virus absorption (-1 h) and then removed” value with influenza H1N1 virus [2] is “did not exert antiviral efficacy”. Also, the “intracellular and supernatant vRNA when added at 1 h p.i. and maintained” value with influenza H1N1 virus [2] was “significant decrease of viral RNAs”. Moreover, in the series with influenza H1N1 virus [2], the “intracellular viral mRNA production” value was “reduced the viral mRNA production”. In the series with influenza H1N1 virus [2], the “vRNAs in cell lysates” value is “subsequent decrease of vRNAs in cell lysates”. In addition, the “luciferase activity (viral polymerase function)” value in [6] is “dose-dependent suppression of luciferase activity”. Also, binding at PAN protein was put at a Kd of 1100 nM. Besides, in “Solubility in PBS”, the solubility worked out at 1000 µg/mL (≈ 2570 µM).
With `CN(C)c1ccc(/C=C2\S/C(=N\N=C3\C(=O)Nc4ccccc43)NC2=O)cc1` [PA-30], the “IC50 compared with that of DPBA” value in [3] is “lower IC50s”. In the series on influenza H1N1 virus [1], the “Selectivity Index (CC50/IC50)” value is on record as above 200, the plaque number reduction result was “reduce the plaque number in a dose-dependent manner” and the IC50 came out at 1500 ± 200 nM. Besides, the CC50 in the series “MTT cytotoxicity assay” is above 300000 nM. In addition, in the series with influenza H1N1 virus [4], the “reduction in supernatant viral titer” value is on record as 2–3 log. Besides, in series [5], the “inhibition of viral replication” value is reported as “inhibited viral replication of all tested subtypes of influenza virus in a dose-dependent manner”. The compound also came in with a Kd on PAN protein of 1300 nM.
On to `O=C1C=CC(=NS(=O)(=O)c2ccc(Cl)cc2)C=C1Cl` [Compound 5158517], for which, in series [3], the “PAN Endonuclease Inhibition Postive” value is given as “Y”.
On to `O=C1C=CC(=O)C(C(=CNCc2ccccc2)[N+](=O)[O-])=C1` [Compound 5261378], for which the “PAN Endonuclease Inhibition Postive” value in [3] is “Y”.
For the compound `C=CCN1C(=O)/C(=C\c2cccn2-c2ccc([N+](=O)[O-])cc2)C(=O)NC1=S` [PA-48], in the series with influenza H1N1 virus [1], the “Selectivity Index (CC50/IC50)” value was 10, the plaque number reduction result is “reduce the plaque number in a dose-dependent manner” and the IC50 stood at 2000 ± 100 nM. The same compound came in with a 50% cytotoxic concentration (CC50) in “MTT cytotoxicity assay” of 20000 ± 5000 nM.
As to `CN(C)c1ccc(C=C2SC(=NN=C3C(=O)Nc4ccccc43)NC2=O)cc1` [Compound 5404571], in series [3], the “PAN Endonuclease Inhibition Postive” value was “Y”. Moreover, the “Anti-H1N1 Positive” value in the series with influenza H1N1 virus [1] was “Y”.
Consider `O=C1C(=O)c2ccccc2C(Cl)=C1Cl` [Compound 6304348], for which, in series [3], the “PAN Endonuclease Inhibition Postive” value is recorded as “Y”.
Regarding `Oc1c(Br)cc(C=NNc2nc3ccccc3s2)c(O)c1Br` [Compound 5482349], the “PAN Endonuclease Inhibition Postive” value in [3] was “Y”. Moreover, the “Anti-H1N1 Positive” value in the series on influenza H1N1 virus [1] is given as “Y”.
For `Nc1c(C(=O)O)cc(O)c2c1C(=O)c1ccccc1C2=O` [PA-24], in the series with influenza H1N1 virus [1], the “Selectivity Index (CC50/IC50)” value turned out to be 129, the plaque number reduction result is recorded as “reduce the plaque number in a dose-dependent manner” and the IC50 was 1400 ± 300 nM. In “MTT cytotoxicity assay”, this compound returned a CC50 of 180000 ± 15000 nM.
For the compound `Nc1c(C(=O)O)cc(O)c2c1C(=O)c1ccccc1C2=O` [Compound 5302115], the “PAN Endonuclease Inhibition Postive” value in series [3] was “Y”. Also, the “Anti-H1N1 Positive” value in the series on influenza H1N1 virus [1] is listed as “Y”.
On to `C=CCN1C(=O)C(=Cc2cccn2-c2cccc([N+](=O)[O-])c2)C(=O)NC1=S` [Compound 5987504], for which, in [3], the “PAN Endonuclease Inhibition Postive” value is “Y”. Also, in the series on influenza H1N1 virus [1], the “Anti-H1N1 Positive” value is given as “Y”.

The IC50 is the concentration that gives 50% inhibition. A low value points to greater potency. In general, CC50 refers to the concentration giving 50% cytotoxicity. What is called Kd is the free concentration of one partner at which half of the binding sites on the other are occupied at equilibrium, for simple one-to-one binding. Low readings indicate tighter binding, high ones weaker binding. Broadly, the solubility is the dissolved amount per volume that the medium holds.
